The record followed here is US11066369B2, “N-(pyridin-2-yl)pyridine-sulfonamide derivatives and their use in the treatment of disease” (Novartis AG, priority 2016, dated 2021).

Like-named read-outs stand apart in the source and are kept apart here.

The target in this test is T1, horseradish peroxidase (HRP) tagged delF508-CFTR (Homo sapiens, UniProt P13569, DEL508-508).
T1 construct: expressed in transfected cells
Kind of test: Measurement of delF508-CFTR-HRP surface expression in CFBE41o- cells.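 As to DelF508-CFTR-HRP Amax %: percent efficacy relative to reference corrector lumacaftor.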 Format: cell-based. The note with it: CFBE41o- cells; for EC50: read-out: DelF508-CFTR-HRP EC50; for Emax: read-out: DelF508-CFTR-HRP Amax %. From the text:
Measurement of delF508-CFTR-HRP Surface Expression in CFBE41o-Cells
This assay quantifies the cell surface expressions of the mutant CFTR channel using an extracellular HRP tag.
A cellular assay was developed to measure surface expression of horseradish peroxidase (HRP) tagged delF508-CFTR in the human bronchial epithelial immortalized CFBE41o-cell line (Phuan, P. W., et al, (2014) Molecular Pharmacology 86:42-51). Specifically, the HRP sequence was inserted into the fourth extracellular loop of delF508-CFTR and stably expressed in CFBE41o-cells. Cells were seeded in 384 well plate at a density of 5000 cells/well and incubated at 37° C. for 12 to 24 hours in medium (Gibco MEM #11095, 10% FBS, 10 mM HEPES, […], 200 μg/mL G418, 3 μg/mL Puromycin). The delF508-CFTR-HRP expression was induced with 500 ng/mL doxycycline (Sigma D-9891, dissolved in H2O and sterile filtered) in medium and the cells were incubated at 37° C. for 48h. Old medium was removed and fresh medium was added containing 500 ng/mL doxycycline and unknown test compound at required test concentration in DMSO, not exceeding 0.5% final DMSO concentration. The highest concentration tested was 10 μM with a 10-point concentration response curve using a 3-fold dilution. After addition of compounds, the cells were incubated for 24h at 37° C. On the final day, cells were washed four times in PBS containing 1 mM MgCl2 and 0.1 mM CaCl2. HRP-Substrate (SuperSignal ELISA Pico, Fisher #37069) 20 μl/well was added and the luminescence signal was determined (Viewlux, Perkin Elmer). Light was emitted upon addition of exogenous HRP-Substrate only when delF508-CFTR-HRP reached the cell surface and the HRP tag was accessible to the HRP-Substrate (note: HRP-Substrate cannot cross the lipid bilayer to reach delF508-CFTR-HRP misfolded within the cell).
The median activity for the lowest concentration of the compounds on each assay plate was calculated and this value was used to normalize the signal for each well on the respective plate. Three replicates at each concentrations for every compound were run to determine one EC50. The median value was determined and used to calculate compound activities as described below. Effective half maximal values (EC50) were calculated for each compound by performing logistic regression on measured dose-response data points using the equation:
[formula] where “Y” is the observed activity, “Bottom” is the lowest observed value, “Top” is the highest observed value, and the “Hill coefficient” gives the largest absolute value of the slope. The curve fitting is carried out by a curve fitting program implemented at GNF using Matlab (Mathworks).
The dose response curves also were used to calculate Fold Change (FC) using the equation: […]
Compound efficacy relative to the reference compound 3-(6-(1-(2,2-difluorobenzo[d][1,3]dioxol-5-yl)cyclopropane-1-carboxamido)-3-methylpyridin-2-yl)benzoic acid was determined using the following formula: […]

Where [1] appears, read: mean of at least two replicates.
Setting [2] is: delF508-CFTR-HRP surface expression.

T1 sequence (P13569 with tags, fused parts or gaps DEL508-508): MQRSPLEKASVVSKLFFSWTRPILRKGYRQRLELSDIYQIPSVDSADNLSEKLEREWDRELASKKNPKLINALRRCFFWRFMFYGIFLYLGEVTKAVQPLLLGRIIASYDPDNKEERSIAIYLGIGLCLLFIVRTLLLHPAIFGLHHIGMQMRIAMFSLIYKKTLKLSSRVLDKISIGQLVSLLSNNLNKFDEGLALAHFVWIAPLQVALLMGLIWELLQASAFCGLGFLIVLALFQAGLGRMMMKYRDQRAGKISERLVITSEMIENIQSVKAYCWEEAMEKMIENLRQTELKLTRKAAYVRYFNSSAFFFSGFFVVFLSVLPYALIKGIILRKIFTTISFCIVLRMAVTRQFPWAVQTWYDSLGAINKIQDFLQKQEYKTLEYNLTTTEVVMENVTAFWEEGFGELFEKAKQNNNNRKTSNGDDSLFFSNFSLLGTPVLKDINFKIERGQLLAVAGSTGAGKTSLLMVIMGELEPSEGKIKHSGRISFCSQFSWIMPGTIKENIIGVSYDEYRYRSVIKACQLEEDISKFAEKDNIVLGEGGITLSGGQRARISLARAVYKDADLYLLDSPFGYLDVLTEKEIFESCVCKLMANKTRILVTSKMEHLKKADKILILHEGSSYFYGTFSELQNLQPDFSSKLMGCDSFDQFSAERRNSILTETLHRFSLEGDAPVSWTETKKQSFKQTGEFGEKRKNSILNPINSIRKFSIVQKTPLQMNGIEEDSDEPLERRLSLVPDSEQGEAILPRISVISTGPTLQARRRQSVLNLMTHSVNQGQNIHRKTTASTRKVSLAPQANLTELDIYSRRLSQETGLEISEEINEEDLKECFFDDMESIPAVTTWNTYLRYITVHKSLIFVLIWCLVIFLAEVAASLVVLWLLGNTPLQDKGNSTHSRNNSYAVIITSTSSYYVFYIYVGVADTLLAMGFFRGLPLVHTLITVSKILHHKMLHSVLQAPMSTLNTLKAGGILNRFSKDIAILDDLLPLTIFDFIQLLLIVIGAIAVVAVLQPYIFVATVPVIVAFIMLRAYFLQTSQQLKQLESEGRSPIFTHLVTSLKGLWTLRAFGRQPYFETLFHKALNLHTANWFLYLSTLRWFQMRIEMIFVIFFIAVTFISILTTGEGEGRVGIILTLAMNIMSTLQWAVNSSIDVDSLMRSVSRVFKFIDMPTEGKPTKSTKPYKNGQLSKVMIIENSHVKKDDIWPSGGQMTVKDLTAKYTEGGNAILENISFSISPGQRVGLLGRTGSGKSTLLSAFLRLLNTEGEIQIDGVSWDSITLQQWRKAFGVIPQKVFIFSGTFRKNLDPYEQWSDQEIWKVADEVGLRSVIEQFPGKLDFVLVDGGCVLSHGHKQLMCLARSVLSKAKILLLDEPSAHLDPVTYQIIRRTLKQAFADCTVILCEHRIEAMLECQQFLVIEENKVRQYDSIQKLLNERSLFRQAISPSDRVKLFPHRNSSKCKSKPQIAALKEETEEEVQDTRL

Take `CCC1(C(=O)O)CCCN(c2cccc(S(=O)(=O)Nc3ccc(Cl)c(-c4c(C)cccc4C)n3)n2)C1` (stereo not drawn) [Example 453, 1-(6-(N-(5-chloro-6-(2,6-dimethylphenyl)pyridin-2-yl)sulfamoyl)pyridin-2-yl)-3-ethylpiperidine-3-carboxylic Acid]: the EC50 (as a rule, the concentration needed to bring the measured effect to its halfway point) under setting [1] came out at 1.59 µM.

With `Cc1cc(NS(=O)(=O)c2cccc(N)n2)nc(-c2c(C)cccc2C)c1` [Example 63, 6-amino-N-(6-(2,6-dimethylphenyl)-4-methylpyridin-2-yl)pyridine-2-sulfonamide], under setting [2], the Emax is 226% and the EC50 was found to be 2.69 µM.

Consider `Cc1ccccc1-c1nc(NS(=O)(=O)c2cccc(N[C@@H]3C[C@@]4(C(=O)O)CC[C@@H]3O4)n2)ccc1C(F)(F)F` (racemic) [Example 395, rac-(1RS,3RS,4SR)-3-((6-(N-(6-(o-tolyl)-5-(trifluoromethyl)pyridin-2-yl)sulfamoyl)pyridin-2-yl)amino)-7-oxabicyclo[2.2.1]heptane-1-carboxylic Acid], for which the half-maximal effective concentration (EC50) under setting [1] came to 3.65 µM. For the same molecule, the Emax (surface expression Amax) was 64.3%.

With `Nc1cccc(S(=O)(=O)Nc2ccc(Cl)c(-c3ccc(F)cc3C3CC3)n2)n1` [Example 27, 6-amino-N-(5-chloro-6-(2-cyclopropyl-4-fluorophenyl)pyridin-2-yl)pyridine-2-sulfonamide], under setting [2], the Emax came to 430% and the concentration for a half-maximal effect (EC50) was 1.72 µM.

For `Cc1cccc(C)c1-c1ccc(Cl)c(NS(=O)(=O)c2cccc(N)n2)n1` [Example 96, 6-amino-N-(3-chloro-6-(2,6-dimethylphenyl)pyridin-2-yl)pyridine-2-sulfonamide], under setting [2], the Emax is 10% and the EC50 came to 4.33 µM.

With `Cc1cccc(C)c1-c1nc(NS(=O)(=O)c2cccc(N3CCC(NC(=O)OC(C)(C)C)(C(=O)O)CC3)n2)ccc1Cl` [Example 268, 4-{[(tert-butoxy)carbonyl]amino}-1-(6-{[5-chloro-6-(2,6-dimethylphenyl)pyridin-2-yl]sulfamoyl}pyridin-2-yl)piperidine-4-carboxylic Acid], under setting [2], the Emax is 103% and the EC50 turned out to be 3.73 µM.

`Cc1ccccc1-c1nc(NS(=O)(=O)c2cccc(N)n2)cc(C(F)(F)F)c1Cl` [Example 22, 6-amino-N-(5-chloro-6-(o-tolyl)-4-(trifluoromethyl)pyridin-2-yl)pyridine-2-sulfonamide]: under setting [2], the Emax was determined as 490% and the concentration for a half-maximal effect (EC50) worked out at 1.62 µM.

On to `Cc1ccccc1-c1nc(NS(=O)(=O)c2nc(N)ccc2F)ccc1Cl` [Example 33, 6-amino-N-(5-chloro-6-(o-tolyl)pyridin-2-yl)-3-fluoropyridine-2-sulfonamide], for which, under setting [2], the Emax was determined as 404% and the EC50 was 2.2 µM.

Regarding `Cc1cccc(C)c1-c1cccc(NS(=O)(=O)c2cccc(N)n2)n1` [Example 68, 6-amino-N-(6-(2,6-dimethylphenyl)pyridin-2-yl)pyridine-2-sulfonamide], under setting [2], the Emax is 209% and the EC50 came out at 2.42 µM.

Take `Cc1cc(F)ccc1-c1nc(NS(=O)(=O)c2ccc(N)nc2)ccc1Cl` [Example 71, 6-amino-N-(5-chloro-6-(4-fluoro-2-methylphenyl)pyridin-2-yl)pyridine-3-sulfonamide]: under setting [2], the Emax amounted to 196% and the EC50 amounted to 3.55 µM.

For the molecule `COc1ccc(Cl)c(-c2nc(NS(=O)(=O)c3cccc(N4CCC[C@@](C)(C(=O)O)C4)n3)ccc2C(F)(F)F)c1` [Example 424, (R)-1-(6-(N-(6-(2-chloro-5-methoxyphenyl)-5-(trifluoromethyl)pyridin-2-yl)sulfamoyl)pyridin-2-yl)-3-methylpiperidine-3-carboxylic Acid], the concentration giving a half-maximal response (EC50) under setting [1] is 2.02 µM.

For the molecule `Cc1ccc(C(F)(F)F)cc1-c1nc(NS(=O)(=O)c2cccc(N)n2)ccc1Cl` [Example 51, 6-amino-N-(5-chloro-6-(2-methyl-5-(trifluoromethyl)phenyl)pyridin-2-yl)pyridine-2-sulfonamide], under setting [2], the Emax was 332% and the concentration for a half-maximal effect (EC50) came out at 1.98 µM.

Turning to `Cc1ccccc1-c1nc(NS(=O)(=O)c2cccc(N3CCC[C@@](C)(C(=O)O)C3)n2)ccc1Cl` [Example 447, (R)-1-(6-(N-(5-chloro-6-(o-tolyl)pyridin-2-yl)sulfamoyl)pyridin-2-yl)-3-methylpiperidine-3-carboxylic Acid], the EC50 under setting [1] is 2.41 µM.

As to `Cc1c(F)cccc1-c1nc(NS(=O)(=O)c2cccc(N3CCCC4(CC4C(=O)O)C3)n2)ccc1C(F)(F)F` (stereo not drawn) [Example 440, 5-(6-(N-(6-(3-fluoro-2-methylphenyl)-5-(trifluoromethyl)pyridin-2-yl)sulfamoyl)pyridin-2-yl)-5-azaspiro[2.5]octane-1-carboxylic Acid], under setting [1], the EC50 is 2.54 µM. The Emax (surface expression Amax) was determined as 274%.

Regarding `Cc1ccccc1-c1nc(NS(=O)(=O)c2cccc(N3CCC[C@@H]4[C@@H](C(=O)O)C[C@@H]43)n2)ccc1C(F)(F)F` (racemic) [Example 443, rac-(1SR,6RS,7SR)-2-(6-(N-(6-(o-tolyl)-5-(trifluoromethyl)pyridin-2-yl)sulfamoyl)pyridin-2-yl)-2-azabicyclo[4.2.0]octane-7-carboxylic Acid], the concentration giving a half-maximal response (EC50) under setting [1] worked out at 1.75 µM.

`Cc1ccccc1-c1nc(NS(=O)(=O)c2cccc(N[C@H]3C[C@H](C(=O)O)C3)n2)ccc1C(F)(F)F` [Example 355, (1r,3r)-3-((6-(N-(6-(o-tolyl)-5-(trifluoromethyl)pyridin-2-yl)sulfamoyl)pyridin-2-yl)amino)cyclobutanecarboxylic Acid]: under setting [2], the Emax came out at 140% and the EC50 is 3.69 µM.

As for `Cc1ccccc1-c1nc(NS(=O)(=O)c2cccc(N3CCN4C[C@@H](F)C[C@H]4C3)n2)ccc1C(F)(F)F` [Example 137, 6-((7S,8aS)-7-fluorohexahydropyrrolo[1,2-a]pyrazin-2(1H)-yl)-N-(6-(o-tolyl)-5-(trifluoromethyl)pyridin-2-yl)pyridine-2-sulfonamide], under setting [2], the Emax was found to be 854% and the concentration for a half-maximal effect (EC50) amounted to 1.35 µM.

With `Nc1cccc(S(=O)(=O)Nc2ccc(C(F)(F)F)c(-c3cccc(C(F)(F)F)c3)n2)n1` [Example 79, 6-amino-N-(5-(trifluoromethyl)-6-(3-(trifluoromethyl)phenyl)pyridin-2-yl)pyridine-2-sulfonamide], under setting [2], the Emax amounted to 141% and the EC50 is 2.3 µM.

On to `Cc1ccc(Cl)c(-c2nc(NS(=O)(=O)c3cccc(N)n3)ccc2Cl)c1F` [Example 38, 6-amino-N-(5-chloro-6-(6-chloro-2-fluoro-3-methylphenyl)pyridin-2-yl)pyridine-2-sulfonamide], for which, under setting [2], the Emax worked out at 376% and the concentration for a half-maximal effect (EC50) amounted to 2 µM.

`Cc1ccccc1-c1nc(NS(=O)(=O)c2cccc(N[C@H]3CC[C@H](C(=O)O)CC3)n2)ccc1C(F)(F)F` [Example 364, (1r,4r)-4-((6-(N-(6-(o-tolyl)-5-(trifluoromethyl)pyridin-2-yl)sulfamoyl)pyridin-2-yl)amino)cyclohexanecarboxylic Acid]: under setting [2], the Emax was determined as 231% and the EC50 came out at 1.59 µM.

For `Cc1ccc(F)cc1-c1nc(NS(=O)(=O)c2cccc(N3CCC34CNC4)n2)ccc1Cl` [Example 310, N-(5-chloro-6-(5-fluoro-2-methylphenyl)pyridin-2-yl)-6-(1,6-diazaspiro[3.3]heptan-1-yl)pyridine-2-sulfonamide], under setting [2], the Emax amounted to 137% and the EC50 came out at 4.98 µM.

For `CCCC1(C(=O)O)CCCN(c2cccc(S(=O)(=O)Nc3ccc(C(F)(F)F)c(-c4ccccc4C)n3)n2)C1` (stereo not drawn) [Example 458, 3-propyl-1-(6-(N-(6-(o-tolyl)-5-(trifluoromethyl)pyridin-2-yl)sulfamoyl)pyridin-2-yl)piperidine-3-carboxylic Acid], under setting [1], the EC50 came out at 1.6 µM. Moreover, the Emax (surface expression Amax) turned out to be 639%.

Turning to `COc1ccc(Cl)cc1-c1nc(NS(=O)(=O)c2cccc(N3CCC(C)(C(=O)O)CC3)n2)ccc1C(F)(F)F` [Example 426, 1-(6-(N-(6-(5-chloro-2-methoxyphenyl)-5-(trifluoromethyl)pyridin-2-yl)sulfamoyl)pyridin-2-yl)-4-methylpiperidine-4-carboxylic Acid], the EC50 under setting [1] came to 2.32 µM. In addition, the Emax (surface expression Amax) amounted to 287%.
